Values quoted from earlier work as cited in US11872245B2, “Antiseptic polymer and synthesis thereof” (TRIMPH IP PTY LIMITED, priority 2015, dated 2024).

Tests used:
IIb3 = IIb3 (Homo sapiens, UniProt P05106+P08514)
V3 = V3 (Homo sapiens, UniProt P05106+P06756)
Sequence of V3 (P06756 31-1048): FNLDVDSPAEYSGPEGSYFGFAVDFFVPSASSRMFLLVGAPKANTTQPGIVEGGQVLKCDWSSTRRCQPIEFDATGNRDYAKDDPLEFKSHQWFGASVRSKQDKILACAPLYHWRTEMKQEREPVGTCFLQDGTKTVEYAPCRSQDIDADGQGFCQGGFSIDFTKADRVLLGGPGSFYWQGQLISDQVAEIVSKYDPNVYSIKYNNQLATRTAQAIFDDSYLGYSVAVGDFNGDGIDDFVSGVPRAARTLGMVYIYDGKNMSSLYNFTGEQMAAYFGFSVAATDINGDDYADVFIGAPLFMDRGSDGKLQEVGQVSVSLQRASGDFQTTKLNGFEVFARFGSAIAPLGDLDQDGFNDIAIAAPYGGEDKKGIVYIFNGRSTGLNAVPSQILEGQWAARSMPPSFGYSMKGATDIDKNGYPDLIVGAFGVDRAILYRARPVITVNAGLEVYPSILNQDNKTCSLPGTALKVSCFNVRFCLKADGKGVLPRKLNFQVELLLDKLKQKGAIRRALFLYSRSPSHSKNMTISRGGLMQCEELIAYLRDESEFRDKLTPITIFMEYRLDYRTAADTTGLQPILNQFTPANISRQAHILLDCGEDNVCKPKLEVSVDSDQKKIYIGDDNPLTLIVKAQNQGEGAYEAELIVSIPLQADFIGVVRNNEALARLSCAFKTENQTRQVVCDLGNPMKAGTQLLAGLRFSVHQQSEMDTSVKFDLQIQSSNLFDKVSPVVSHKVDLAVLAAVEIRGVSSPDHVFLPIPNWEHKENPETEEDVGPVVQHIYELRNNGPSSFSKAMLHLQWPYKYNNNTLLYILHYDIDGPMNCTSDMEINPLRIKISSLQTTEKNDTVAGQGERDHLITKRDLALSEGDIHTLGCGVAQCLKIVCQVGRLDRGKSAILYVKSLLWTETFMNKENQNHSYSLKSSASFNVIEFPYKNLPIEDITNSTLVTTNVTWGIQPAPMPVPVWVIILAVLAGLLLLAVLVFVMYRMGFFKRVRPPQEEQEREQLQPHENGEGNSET
Sequence of V3 (P05106 27-788): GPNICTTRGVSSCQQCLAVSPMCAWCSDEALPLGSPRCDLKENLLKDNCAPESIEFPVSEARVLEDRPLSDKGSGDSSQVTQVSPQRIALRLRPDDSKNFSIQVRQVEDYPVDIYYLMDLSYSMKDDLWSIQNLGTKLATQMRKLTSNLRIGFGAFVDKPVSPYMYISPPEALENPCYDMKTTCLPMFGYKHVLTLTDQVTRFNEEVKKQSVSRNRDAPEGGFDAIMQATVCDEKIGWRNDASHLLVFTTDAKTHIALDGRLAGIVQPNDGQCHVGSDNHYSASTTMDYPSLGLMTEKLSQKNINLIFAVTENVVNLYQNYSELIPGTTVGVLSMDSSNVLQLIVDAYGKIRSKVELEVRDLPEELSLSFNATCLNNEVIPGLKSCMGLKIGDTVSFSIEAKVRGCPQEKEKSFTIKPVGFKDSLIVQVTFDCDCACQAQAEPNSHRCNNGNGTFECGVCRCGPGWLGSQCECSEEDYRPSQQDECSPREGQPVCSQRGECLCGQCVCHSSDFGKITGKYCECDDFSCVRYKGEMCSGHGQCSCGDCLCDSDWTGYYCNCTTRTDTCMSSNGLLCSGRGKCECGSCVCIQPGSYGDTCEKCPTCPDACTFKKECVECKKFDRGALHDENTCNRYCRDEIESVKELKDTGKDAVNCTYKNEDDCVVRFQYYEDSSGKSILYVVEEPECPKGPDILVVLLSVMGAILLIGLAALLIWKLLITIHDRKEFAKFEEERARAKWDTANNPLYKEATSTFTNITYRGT

Sequence of IIb3 (P08514 32-1039): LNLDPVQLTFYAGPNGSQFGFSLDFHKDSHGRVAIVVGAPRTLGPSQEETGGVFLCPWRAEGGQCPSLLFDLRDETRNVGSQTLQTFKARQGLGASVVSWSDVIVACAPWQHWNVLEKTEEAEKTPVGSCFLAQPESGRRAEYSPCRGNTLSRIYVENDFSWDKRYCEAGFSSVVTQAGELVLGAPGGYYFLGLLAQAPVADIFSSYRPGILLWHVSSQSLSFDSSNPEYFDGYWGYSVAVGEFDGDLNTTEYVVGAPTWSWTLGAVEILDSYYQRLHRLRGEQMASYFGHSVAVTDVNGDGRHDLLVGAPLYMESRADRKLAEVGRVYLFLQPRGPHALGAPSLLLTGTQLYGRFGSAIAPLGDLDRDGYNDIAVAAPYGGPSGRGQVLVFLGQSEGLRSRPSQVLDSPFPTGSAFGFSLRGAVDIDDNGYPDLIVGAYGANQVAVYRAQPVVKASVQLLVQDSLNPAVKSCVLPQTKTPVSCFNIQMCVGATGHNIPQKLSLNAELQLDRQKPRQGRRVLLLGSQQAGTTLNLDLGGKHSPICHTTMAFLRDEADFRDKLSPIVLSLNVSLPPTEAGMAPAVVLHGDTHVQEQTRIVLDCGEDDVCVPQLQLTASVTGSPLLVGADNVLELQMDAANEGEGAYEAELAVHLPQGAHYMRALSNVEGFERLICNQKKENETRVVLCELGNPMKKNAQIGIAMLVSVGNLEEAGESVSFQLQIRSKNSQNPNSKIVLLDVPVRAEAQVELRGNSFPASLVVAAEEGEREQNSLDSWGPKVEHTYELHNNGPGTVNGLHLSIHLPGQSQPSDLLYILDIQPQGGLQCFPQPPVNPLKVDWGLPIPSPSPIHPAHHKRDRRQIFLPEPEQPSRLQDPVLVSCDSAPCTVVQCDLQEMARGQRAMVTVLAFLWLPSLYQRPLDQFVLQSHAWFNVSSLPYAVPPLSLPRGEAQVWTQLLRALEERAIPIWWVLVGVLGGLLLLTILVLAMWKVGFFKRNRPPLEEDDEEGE
Sequence of IIb3 (P05106 27-788): as the sequence (P05106 27-788) above

affinity (IIb3): intermediate affinity | affinity (V3): intermediate affinity
Substance: {GLY}{ARG}{GLY}{ASP}{SER} [GRGDS]
